Consider 40 molecules from patent US10941379B2, “Microbial system for biosynthesis of natural and engineered products coupled to in situ extraction in supercritical CO2” (Massachusetts Institute of Technology, priority 2016, dated 2021).

Peptide text beside a SMILES is read from it.

The subject of this assay is B. megaterium SR7. Description: Biolog GenIII sole carbon source growth. Format: cell-based, Bacillus megaterium. The note with it: Table 11; for Growth in carbon source Biolog plate, +Metals: trace metals-amended plate; for Growth in carbon source Biolog plate, I: unamended plate trial I; for Growth in carbon source Biolog plate, II: unamended plate trial II. How it is done: Plates were incubated at 37° C. on a plate shaker at 200 rpm and assayed for growth using NADH-dependent colorimetric changes measured by OD490 on a microplate reader (BioTek Synergy 2; BioTek; Winooski, Vt.).

`C[C@H](O)[C@@H](O)[C@@H](O)[C@H](O)C=O` [L-Fucose]: the “Growth in carbon source Biolog plate, +Metals” value is “−”; the “Growth in carbon source Biolog plate, I” value is “−”; the “Growth in carbon source Biolog plate, II” value was “−”.

With `N=C(N)NCCC[C@H](N)C(=O)O` [L-Arginine], the “Growth in carbon source Biolog plate, +Metals” value is on record as “+++”; the “Growth in carbon source Biolog plate, I” value is “+”; the “Growth in carbon source Biolog plate, II” value is listed as “+”.

In the case of `COC(=O)C(C)=O` [Methyl Pyruvate], the “Growth in carbon source Biolog plate, +Metals” value is “+”; the “Growth in carbon source Biolog plate, I” value was “+”; the “Growth in carbon source Biolog plate, II” value is reported as “+”.

Turning to `OC[C@H]1O[C@@H](O[C@H]2[C@H](O)[C@@H](O)[C@H](O)O[C@@H]2CO)[C@H](O)[C@@H](O)[C@@H]1O` [D-Cellobiose], the “Growth in carbon source Biolog plate, +Metals” value is on record as “+”; the “Growth in carbon source Biolog plate, I” value is “+”; the “Growth in carbon source Biolog plate, II” value is listed as “+”.

Take `O=CO` [Formic Acid]: the “Growth in carbon source Biolog plate, +Metals” value is “−”; the “Growth in carbon source Biolog plate, I” value is on record as “+”; the “Growth in carbon source Biolog plate, II” value is “−”.

On to `OC[C@H]1O[C@H](OC[C@H]2O[C@H](O[C@]3(CO)O[C@H](CO)[C@@H](O)[C@@H]3O)[C@H](O)[C@@H](O)[C@@H]2O)[C@H](O)[C@@H](O)[C@H]1O` [D-Raffinose], for which the “Growth in carbon source Biolog plate, +Metals” value is reported as “+++”; the “Growth in carbon source Biolog plate, I” value is “−”; the “Growth in carbon source Biolog plate, II” value is “+”.

`CC(=O)CC(=O)O` [Acetoacetic Acid]: the “Growth in carbon source Biolog plate, +Metals” value is on record as “−”; the “Growth in carbon source Biolog plate, I” value is on record as “−”; the “Growth in carbon source Biolog plate, II” value is listed as “+”.

As for `CCC(=O)O` [Propionic Acid], the “Growth in carbon source Biolog plate, +Metals” value is “−”; the “Growth in carbon source Biolog plate, I” value was “−”; the “Growth in carbon source Biolog plate, II” value is given as “+”.

Consider `O=C(O)C[C@@H](O)C(=O)O` [D-Malic Acid], for which the “Growth in carbon source Biolog plate, +Metals” value was “−”; the “Growth in carbon source Biolog plate, I” value is reported as “−”; the “Growth in carbon source Biolog plate, II” value is given as “−”.

As to `N[C@H](CC(=O)O)C(=O)O` [D-Aspartic Acid], the “Growth in carbon source Biolog plate, +Metals” value is on record as “−”; the “Growth in carbon source Biolog plate, I” value is “−”; the “Growth in carbon source Biolog plate, II” value was “−”.

`O=C(O)[C@]1(O)C[C@@H](O)[C@@H](O)[C@H](O)C1` [Quinic Acid]: the “Growth in carbon source Biolog plate, +Metals” value is listed as “−”; the “Growth in carbon source Biolog plate, I” value is listed as “−”; the “Growth in carbon source Biolog plate, II” value was “+”.

For `OC[C@H]1O[C@H](OCC2O[C@@H](O)[C@H](O)[C@@H](O)[C@@H]2O)[C@H](O)[C@@H](O)[C@H]1O` (stereo partly drawn) [D-Melibiose], the “Growth in carbon source Biolog plate, +Metals” value is “+”; the “Growth in carbon source Biolog plate, I” value was “+”; the “Growth in carbon source Biolog plate, II” value is reported as “+”.

In the case of `C[C@H](O)[C@H](O)[C@@H](O)[C@@H](O)C=O` [L-Rhamnose], the “Growth in carbon source Biolog plate, +Metals” value is on record as “−”; the “Growth in carbon source Biolog plate, I” value is “−”; the “Growth in carbon source Biolog plate, II” value was “−”.

For the molecule `OCC(O)CO` [Glycerol], the “Growth in carbon source Biolog plate, +Metals” value is recorded as “+”; the “Growth in carbon source Biolog plate, I” value was “+”; the “Growth in carbon source Biolog plate, II” value is given as “+”.

Regarding `CC(=O)N[C@H]1C(O)O[C@H](CO)[C@H](O)[C@@H]1O` (stereo partly drawn) [N-Acetyl-D-Galactosamine], the “Growth in carbon source Biolog plate, +Metals” value is recorded as “−”; the “Growth in carbon source Biolog plate, I” value is reported as “+”; the “Growth in carbon source Biolog plate, II” value is “−”.

In the case of `NCC(=O)N1CCC[C@H]1C(=O)O` [Glycyl-L-Proline] (H-Gly-Pro-OH), the “Growth in carbon source Biolog plate, +Metals” value was “−”; the “Growth in carbon source Biolog plate, I” value is listed as “−”; the “Growth in carbon source Biolog plate, II” value is “−”.

In the case of `COC(=O)[C@@H](C)O` [D-Lactic Acid Methyl Ester], the “Growth in carbon source Biolog plate, +Metals” value was “+”; the “Growth in carbon source Biolog plate, I” value is “+”; the “Growth in carbon source Biolog plate, II” value was “+”.

Consider `OC[C@H]1O[C@@H](O[C@H]2[C@H](O)[C@@H](O)[C@@H](O)O[C@@H]2CO)[C@H](O)[C@@H](O)[C@H]1O` [α-D-Lactose], for which the “Growth in carbon source Biolog plate, +Metals” value is recorded as “+”; the “Growth in carbon source Biolog plate, I” value is recorded as “+”; the “Growth in carbon source Biolog plate, II” value is “+”.

For `OC[C@H]1O[C@H](OC[C@H]2O[C@H](OC[C@H]3O[C@H](O[C@]4(CO)O[C@H](CO)[C@@H](O)[C@@H]4O)[C@H](O)[C@@H](O)[C@@H]3O)[C@H](O)[C@@H](O)[C@H]2O)[C@H](O)[C@@H](O)[C@H]1O` [Stachyose], the “Growth in carbon source Biolog plate, +Metals” value is listed as “+”; the “Growth in carbon source Biolog plate, I” value is “+”; the “Growth in carbon source Biolog plate, II” value is given as “+”.

`C[C@@H](O)[C@H](O)[C@H](O)[C@@H](O)C=O` [D-Fucose]: the “Growth in carbon source Biolog plate, +Metals” value is listed as “−”; the “Growth in carbon source Biolog plate, I” value is “−”; the “Growth in carbon source Biolog plate, II” value is reported as “−”.

On to `O=C(O)Cc1ccc(O)cc1` [p-Hydroxy-Phenylacetic Acid], for which the “Growth in carbon source Biolog plate, +Metals” value is given as “−”; the “Growth in carbon source Biolog plate, I” value is “−”; the “Growth in carbon source Biolog plate, II” value is given as “−”.

Take `OC[C@H]1O[C@@H](n2cnc3c(O)ncnc32)[C@H](O)[C@@H]1O` [Inosine]: the “Growth in carbon source Biolog plate, +Metals” value is “+”; the “Growth in carbon source Biolog plate, I” value is recorded as “−”; the “Growth in carbon source Biolog plate, II” value was “+”.

Consider `N[C@@H](CO)C(=O)O` [L-Serine], for which the “Growth in carbon source Biolog plate, +Metals” value was “−”; the “Growth in carbon source Biolog plate, I” value is on record as “+”; the “Growth in carbon source Biolog plate, II” value is “+”.

For the molecule `NC(=O)[C@@H](O)[C@@H](O)[C@H](O)[C@@H](O)C=O` [Glucuronamide], the “Growth in carbon source Biolog plate, +Metals” value is listed as “−”; the “Growth in carbon source Biolog plate, I” value is “−”; the “Growth in carbon source Biolog plate, II” value is “−”.

`O[C@H]1[C@H](O)[C@@H](O)[C@H](O)[C@@H](O)[C@H]1O` [myo-Inositol]: the “Growth in carbon source Biolog plate, +Metals” value was “+++”; the “Growth in carbon source Biolog plate, I” value was “−”; the “Growth in carbon source Biolog plate, II” value is “+”.

As for `O=C1O[C@H]([C@@H](O)CO)[C@@H](O)[C@@H]1O` [L-Galactonic Acid Lactone], the “Growth in carbon source Biolog plate, +Metals” value is “−”; the “Growth in carbon source Biolog plate, I” value is reported as “−”; the “Growth in carbon source Biolog plate, II” value is reported as “+”.

Take `CC(=O)N[C@H]1[C@@H](O)[C@H](O)[C@@H](CO)O[C@H]1O` [N-Acetyl-β-D-Mannosamine]: the “Growth in carbon source Biolog plate, +Metals” value is given as “−”; the “Growth in carbon source Biolog plate, I” value was “−”; the “Growth in carbon source Biolog plate, II” value is “−”.

On to `OC[C@@H](O)C(O)[C@H](O)CO` [D-Arabitol], for which the “Growth in carbon source Biolog plate, +Metals” value is reported as “+”; the “Growth in carbon source Biolog plate, I” value is listed as “+”; the “Growth in carbon source Biolog plate, II” value is reported as “+”.

As to `CO[C@@H]1O[C@H](CO)[C@@H](O)[C@H](O)[C@H]1O` [β-Methyl-D-Glucoside], the “Growth in carbon source Biolog plate, +Metals” value was “+”; the “Growth in carbon source Biolog plate, I” value is “−”; the “Growth in carbon source Biolog plate, II” value was “+”.

As for `OC[C@@H](O)[C@@H](O)[C@H](O)[C@@H](O)CO` [D-Sorbitol], the “Growth in carbon source Biolog plate, +Metals” value is listed as “+”; the “Growth in carbon source Biolog plate, I” value is “+”; the “Growth in carbon source Biolog plate, II” value is “−”.

Consider `O=C[C@H](O)[C@@H](O)[C@@H](O)[C@H](O)CO` [D-Galactose], for which the “Growth in carbon source Biolog plate, +Metals” value is listed as “+”; the “Growth in carbon source Biolog plate, I” value is recorded as “+”; the “Growth in carbon source Biolog plate, II” value is listed as “+”.

For the molecule `OC[C@H]1O[C@H](O[C@H]2O[C@H](CO)[C@@H](O)[C@H](O)[C@H]2O)[C@H](O)[C@@H](O)[C@@H]1O` [D-Trehalose], the “Growth in carbon source Biolog plate, +Metals” value was “+”; the “Growth in carbon source Biolog plate, I” value is “−”; the “Growth in carbon source Biolog plate, II” value was “+”.

In the case of `CC(=O)N[C@H]1[C@H]([C@H](O)[C@H](O)CO)OC(O)(C(=O)O)C[C@@H]1O` (stereo partly drawn) [N-Acetyl Neuraminic Acid], the “Growth in carbon source Biolog plate, +Metals” value is “−”; the “Growth in carbon source Biolog plate, I” value was “−”; the “Growth in carbon source Biolog plate, II” value is listed as “−”.

On to `O=P(O)(O)OC[C@H]1OC(O)(CO)[C@@H](O)[C@@H]1O` (stereo partly drawn) [D-Fructose-6-PO4], for which the “Growth in carbon source Biolog plate, +Metals” value was “−”; the “Growth in carbon source Biolog plate, I” value is “+”; the “Growth in carbon source Biolog plate, II” value is recorded as “−”.

`O=C[C@H](O)[C@@H](O)[C@@H](O)[C@H](O)C(=O)O` [D-Galacturonic Acid]: the “Growth in carbon source Biolog plate, +Metals” value was “−”; the “Growth in carbon source Biolog plate, I” value is reported as “−”; the “Growth in carbon source Biolog plate, II” value is given as “+”.

`O=C(CO)[C@@H](O)[C@H](O)[C@H](O)CO` [D-Fructose]: the “Growth in carbon source Biolog plate, +Metals” value is “+”; the “Growth in carbon source Biolog plate, I” value is listed as “+”; the “Growth in carbon source Biolog plate, II” value is listed as “+”.

Take D-Turanose: the “Growth in carbon source Biolog plate, +Metals” value is given as “+++”; the “Growth in carbon source Biolog plate, I” value is given as “+”; the “Growth in carbon source Biolog plate, II” value is reported as “+”.

Take `O=C(O)[C@@H](O)[C@H](O)[C@H](O)[C@@H](O)C(=O)O` [Mucic Acid]: the “Growth in carbon source Biolog plate, +Metals” value is “−”; the “Growth in carbon source Biolog plate, I” value was “−”; the “Growth in carbon source Biolog plate, II” value was “+”.

On to Gentiobiose, for which the “Growth in carbon source Biolog plate, +Metals” value was “+”; the “Growth in carbon source Biolog plate, I” value is listed as “+”; the “Growth in carbon source Biolog plate, II” value is on record as “+”.

In the case of `O=C[C@H](O)[C@@H](O)[C@H](O)[C@H](O)C(=O)O` [D-Glucuronic Acid], the “Growth in carbon source Biolog plate, +Metals” value is listed as “−”; the “Growth in carbon source Biolog plate, I” value is listed as “+”; the “Growth in carbon source Biolog plate, II” value is “+”.
